Earlier results on 1 compound are cited in patent EP0706556B1, “CLEANING AND DI[…]” (Henkel-Ecolab GmbH & Co. OHG, priority 1993, dated 1995).

As for `C=O` [Formaldehyd], the “Konzentration, bei der Augenreizungen auftreten können” value (exposed persons, certain individuals) is ≥ 0,4 ppm. Where the note is “inhalation, humans”, the “Konzentration, die Lungenödeme verursacht” value is 50 ppm and the “Konzentration, die Tränenfluß verursacht” value is ≥ 0,1 ppm.
